Measured values taken from PMC12072002, “Site-Directed Mutagenesis Increased the Catalytic Activity and Stability of Oenococcus oeni β-Glucosidase: Characterization of Enzymatic Properties and Exploration of Mechanisms” (International Journal of Molecular Sciences, 2025).
Like-named read-outs stand apart in the source and are kept apart here.

Legend:
Format in all cases: biochemical, Oenococcus oeni SD-2a
[1] = system: mutant III (β-glucosidase F133K); assay: Effects of metal ions and additives on enzyme activity (p-NPG hydrolysis, IC50); details: for effect on enzyme activity of mutant III: in words; for IC50 on Mutant III / IC50: metal ions and additives, Concentration 5 mM, optimum temperature and pH
Procedure: (§1) The method for the determination of the effects of different metal ions and additives on enzyme activity was referred to Zhou et al., with slight modifications. To determine the effects of metal ions and some additives on the BGLs’ activity, lyophilized powders of the wild-type and mutant BGLs were formulated into solutions with a final concentration of 10 mg/mL using 20 mM sodium phosphate buffer as well as 25 mM of p-NPG substrate solution and different concentrations (0.1 mM, 0.5 mM, 1.0 mM, 5.0 mM and 10 mM) of metal ion solutions (K^+, Na^+, Li^+, Ag^+, Mg^2+, Zn^2+, Ba^2+, Ca^2+, Cu^2+, Mn^2+, Fe^2+ and Fe^3+) and additive solutions (SDS, DTT, EDTA, TritonX-100 and Tween-80). The enzyme solutions (10 μL), p-NPG solution (490 μL) and different concentrations of additive solutions (500 μL) were mixed well. The reaction lasted for 30 min under the optimal reaction conditions of the enzyme. Then, 1mL 1 M Na2CO3 was added to terminate the reaction. The absorbance value of the reaction system was measured at 420 nm and the activity of the BGLs was calculated according to the standard curve. The IC50 (half of the maximum inhibitory concentration) of the reagents on BGL activity was calculated using a logistic function with Growth/Sigmoidal-type nonlinear fitting in Origin Pro 8.0.

[2] = system: wild-type enzyme (β-glucosidase BGL0224); assay: as above; details: for effect on enzyme activity of the wild-type enzyme: in words; for IC50 on Wild-Type Enzyme / IC50: metal ions and additives, Concentration 5 mM, optimum temperature and pH
Procedure: as §1

[3] = system: mutant IV (β-glucosidase N181R); parameters: key to IC50 on Mutant IV: “-”represents no enzymatic activity; details: for effect on enzyme activity of mutant IV: in words
Procedure: The method for the determination of the effects of different metal ions and additives on enzyme activity was referred to Zhou et al., with slight modifications. […] The enzyme solutions (10 μL), p-NPG solution (490 μL) and different concentrations of additive solutions (500 μL) were mixed well. The reaction lasted for 30 min under the optimal reaction conditions of the enzyme. Then, 1mL 1 M Na2CO3 was added to terminate the reaction. The absorbance value of the reaction system was measured at 420 nm and the activity of the BGLs was calculated according to the standard curve. The IC50 (half of the maximum inhibitory concentration) of the reagents on BGL activity was calculated using a logistic function with Growth/Sigmoidal-type nonlinear fitting in Origin Pro 8.0.

[4] = biological target: wild-type enzyme (β-glucosidase BGL0224); assay: Effects of metal ions and additives on enzyme activity (p-NPG hydrolysis, IC50); parameters: key: “-”represents no enzymatic activity; details: additive concentration 0.2%
[5] = biological target: mutant III (β-glucosidase F133K); assay: as above; parameters: key: “-”represents no enzymatic activity; details: additive concentration 0.2%
[6] = metal ions and additives, Concentration 5 mM, optimum temperature and pH

[Li+] [Li^+]
effect on enzyme activity of mutant III ([1]; metal ion at 5 mM): enhanced
IC50 on Mutant III [1]: Activator
effect on enzyme activity of the wild-type enzyme ([2]; metal ion at 5 mM): enhanced
IC50 on Wild-Type Enzyme [2]: Activator
effect on enzyme activity of mutant IV ([3]; metal ion at 5 mM): enhanced
IC50 on Mutant IV [3, 6]: Activator

O[C@@H](CS)[C@@H](O)CS [DTT]
IC50 [1]: 5.49 mM
IC50 [2]: 7.93 mM
IC50 [3, 6]: 6.17 mM

[K+] [K^+]
effect on enzyme activity of mutant III ([1]; metal ion at 5 mM): enhanced
IC50 on Mutant III [1]: Activator
effect on enzyme activity of the wild-type enzyme ([2]; metal ion at 5 mM): enhanced
IC50 on Wild-Type Enzyme [2]: Activator
inhibition rate on mutant IV ([3]; metal ion at 5 mM): 85.02%
IC50 [3, 6]: 2.42 mM

[Mn+2] [Mn^2+]
effect on enzyme activity of mutant III ([1]; metal ion at 5 mM): promoted
IC50 on Mutant III [1]: Activator
inhibition of wild-type enzyme activity ([2]; metal ion at 5 mM): 76.51%
IC50 [2]: 3.76 mM
effect on enzyme activity of mutant IV ([3]; metal ion at 5 mM): promoted
IC50 on Mutant IV [3, 6]: Activator

[Fe+2] [Fe^2+]
effect on enzyme activity of mutant III ([1]; metal ion at 5 mM): inhibitory effects
IC50 [1]: 3.96 mM
effect on enzyme activity of the wild-type enzyme ([2]; metal ion at 5 mM): inhibitory effects
IC50 [2]: 2.83 mM
effect on enzyme activity of mutant IV ([3]; metal ion at 5 mM): inhibitory effects
IC50 [3, 6]: 4.43 mM

[Zn+2] [Zn^2+]
effect on enzyme activity of mutant III ([1]; metal ion at 5 mM): inhibitory effects
IC50 [1]: 3.19 mM
effect on enzyme activity of the wild-type enzyme ([2]; metal ion at 5 mM): inhibitory effects
IC50 [2]: 3.87 mM
effect on enzyme activity of mutant IV ([3]; metal ion at 5 mM): inhibitory effects
IC50 [3, 6]: 2.94 mM

Tween-80
IC50 on Mutant IV ([3]; additive concentration 0.2%): -
IC50 on Wild-Type Enzyme [4]: -
IC50 on Mutant III [5]: -

O=C(O)CN(CCN(CC(=O)O)CC(=O)O)CC(=O)O [EDTA]
IC50 [1]: 6.89 mM
IC50 [2]: 6.41 mM
IC50 [3, 6]: 7.16 mM

[Cu+2] [Cu^2+]
effect on enzyme activity of mutant III ([1]; metal ion at 5 mM): inhibitory effects
IC50 [1]: 3.48 mM
effect on enzyme activity of the wild-type enzyme ([2]; metal ion at 5 mM): inhibitory effects
IC50 [2]: 3.12 mM
effect on enzyme activity of mutant IV ([3]; metal ion at 5 mM): inhibitory effects
IC50 [3, 6]: 1.58 mM

[Na+] [Na^+]
inhibition rate on mutant III ([1]; metal ion at 5 mM): 97.45%
IC50 [1]: 0.929 mM
effect on enzyme activity of the wild-type enzyme ([2]; metal ion at 5 mM): increased
IC50 on Wild-Type Enzyme [2]: Activator
effect on enzyme activity of mutant IV ([3]; metal ion at 5 mM): increased
IC50 on Mutant IV [3, 6]: Activator

[Ag+] [Ag^+]
effect on enzyme activity of mutant III ([1]; metal ion at 5 mM): inhibitory effects
IC50 [1]: 3.03 mM
effect on enzyme activity of the wild-type enzyme ([2]; metal ion at 5 mM): inhibitory effects
IC50 [2]: 7.43 mM
effect on enzyme activity of mutant IV ([3]; metal ion at 5 mM): inhibitory effects
IC50 [3, 6]: 2.93 mM

CCCCCCCCCCCCOS(=O)(=O)[O-].[Na+] [SDS]
IC50 [1]: 6.72 mM
IC50 [2]: 7.89 mM
IC50 [3, 6]: 6.29 mM

[Ba+2] [Ba^2+]
effect on enzyme activity of mutant III ([1]; metal ion at 5 mM): enhanced
IC50 on Mutant III [1]: Activator
effect on enzyme activity of the wild-type enzyme ([2]; metal ion at 5 mM): enhanced
IC50 on Wild-Type Enzyme [2]: Activator
effect on enzyme activity of mutant IV ([3]; metal ion at 5 mM): enhanced
IC50 on Mutant IV [3, 6]: Activator

[Mg+2] [Mg^2+]
effect on enzyme activity of mutant III ([1]; metal ion at 5 mM): inhibitory effects
IC50 [1]: 3.37 mM
effect on enzyme activity of the wild-type enzyme ([2]; metal ion at 5 mM): inhibitory effects
IC50 [2]: 8.92 mM
effect on enzyme activity of mutant IV ([3]; metal ion at 5 mM): inhibitory effects
IC50 [3, 6]: 5.35 mM

[Ca+2] [Ca^2+]
effect on enzyme activity of mutant III ([1]; metal ion at 5 mM): inhibitory effects
IC50 [1]: 3.38 mM
effect on enzyme activity of the wild-type enzyme ([2]; metal ion at 5 mM): inhibitory effects
IC50 [2]: 4.09 mM
effect on enzyme activity of mutant IV ([3]; metal ion at 5 mM): inhibitory effects
IC50 [3, 6]: 3.28 mM

Triton X-100 [Triton-X100]
IC50 on Mutant IV ([3]; additive concentration 0.2%): -
IC50 on Wild-Type Enzyme [4]: -
IC50 on Mutant III [5]: -
